Results taken from the CheMixHub viscosity set.

Assay: xn = mol fraction of the nth substance listed

CCCC(C)O (stereo not given) + CCCCOC(C)=O
viscosity [mPa·s], 100 kPa
Conditions | x2 = 0.0809 | x2 = 0.1601 | x2 = 0.2399 | x2 = 0.3501 | x2 = 0.44 | x2 = 0.56 | x2 = 0.65 | x2 = 0.7398 | x2 = 0.85 | x2 = 0.9399
293.15 K | 2.506 | 1.64 | 1.205 | 0.917 | 0.797 | 0.724 | 0.703 | 0.685 | 0.684 | 0.7
298.15 K | 2.253 | 1.525 | 1.121 | 0.853 | 0.744 | 0.668 | 0.656 | 0.644 | 0.644 | 0.656
303.15 K | 2.018 | 1.419 | 1.05 | 0.805 | 0.688 | 0.62 | 0.605 | 0.6 | 0.599 | 0.618
308.15 K | 1.688 | 1.227 | 0.926 | 0.704 | 0.616 | 0.56 | 0.546 | 0.537 | 0.548 | 0.566
313.15 K | 1.407 | 1.016 | 0.775 | 0.619 | 0.548 | 0.504 | 0.488 | 0.48 | 0.496 | 0.52
318.15 K | 1.139 | 0.816 | 0.614 | 0.497 | 0.455 | 0.424 | 0.416 | 0.421 | 0.448 | 0.476
323.15 K | 0.874 | 0.6 | 0.438 | 0.365 | 0.343 | 0.338 | 0.341 | 0.358 | 0.391 | 0.432

CCCCNCCCC + CCCCOCCO
viscosity [mPa·s], 100 kPa
Conditions | 298.15 K | 303.15 K | 308.15 K
x2 = 0.0501 | 0.94 | 0.85 | 0.8
x2 = 0.1169 | 1.1 | 1.01 | 0.93
x2 = 0.1502 | 1.19 | 1.07 | 1
x2 = 0.2006 | 1.34 | 1.17 | 1.08
x2 = 0.3001 | 1.58 | 1.35 | 1.25
x2 = 0.4001 | 1.82 | 1.55 | 1.43
x2 = 0.5 | 2.14 | 1.83 | 1.63
x2 = 0.5999 | 2.42 | 2.12 | 1.84
x2 = 0.6998 | 2.7 | 2.33 | 2.09
x2 = 0.8 | 2.97 | 2.5 | 2.28
x2 = 0.8965 | 3.1 | 2.61 | 2.38
x2 = 0.95 | 2.97 | 2.56 | 2.32

CCCCNCCCC + CCCO
viscosity [mPa·s], 101.33 kPa
Conditions | x1 = 0.0988 | x1 = 0.1893 | x1 = 0.3012 | x1 = 0.4041 | x1 = 0.4964 | x1 = 0.59 | x1 = 0.693 | x1 = 0.7809 | x1 = 0.8947
303.15 K | 1.681 | 1.564 | 1.404 | 1.276 | 1.176 | 1.084 | 0.9942 | 0.9209 | 0.832
313.15 K | 1.309 | 1.228 | 1.123 | 1.03 | 0.9494 | 0.8887 | 0.8255 | 0.7761 | 0.7157

CCCCNCCCC + CCO
viscosity [mPa·s], 101.33 kPa
Conditions | x1 = 0.1169 | x1 = 0.2094 | x1 = 0.3171 | x1 = 0.3921 | x1 = 0.4922 | x1 = 0.6159 | x1 = 0.712 | x1 = 0.7802 | x1 = 0.8995
303.15 K | 1.107 | 1.126 | 1.099 | 1.065 | 1.008 | 0.9427 | 0.8965 | 0.8625 | 0.8089
313.15 K | 0.9037 | 0.9066 | 0.8803 | 0.8493 | 0.8109 | 0.766 | 0.7426 | 0.7261 | 0.6965

CCOC(=O)C(=O)OCC + CCO
viscosity [mPa·s]
Conditions | 303.15 K | 313.15 K | 323.15 K
101 kPa, x1 = 0.1003 | 0.935 | 0.799 | 0.667
101 kPa, x1 = 0.2024 | 0.948 | 0.809 | 0.68
101 kPa, x1 = 0.3028 | 0.988 | 0.836 | 0.711
101 kPa, x1 = 0.4015 | 1.045 | 0.879 | 0.751
101 kPa, x1 = 0.4917 | 1.108 | 0.93 | 0.793
101 kPa, x1 = 0.5907 | 1.177 | 0.99 | 0.845
101 kPa, x1 = 0.6942 | 1.259 | 1.063 | 0.909
101 kPa, x1 = 0.8049 | 1.362 | 1.151 | 0.987
101 kPa, x1 = 0.903 | 1.484 | 1.233 | 1.061
101.33 kPa, x1 = 0.1001 | 0.948 | – | –
101.33 kPa, x1 = 0.2004 | 0.968 | – | –
101.33 kPa, x1 = 0.2897 | 1.009 | – | –
101.33 kPa, x1 = 0.398 | 1.069 | – | –
101.33 kPa, x1 = 0.5098 | 1.146 | – | –
101.33 kPa, x1 = 0.5982 | 1.213 | – | –
101.33 kPa, x1 = 0.6828 | 1.283 | – | –
101.33 kPa, x1 = 0.77 | 1.371 | – | –
101.33 kPa, x1 = 0.8931 | 1.515 | – | –

COCCO + CCO
viscosity [mPa·s], 101 kPa
Conditions | x1 = 0.06304 | x1 = 0.133 | x1 = 0.206 | x1 = 0.2876 | x1 = 0.3771 | x1 = 0.476 | x1 = 0.5856 | x1 = 0.7078 | x1 = 0.8449
298.15 K | 1.051 | 1.024 | 1.019 | 1.031 | 1.053 | 1.084 | 1.173 | 1.286 | 1.415
308.15 K | 0.8342 | 0.8445 | 0.8576 | 0.8812 | 0.9063 | 0.9409 | 1.003 | 1.07 | 1.105
318.15 K | 0.7622 | 0.7704 | 0.773 | 0.8002 | 0.847 | 0.868 | 0.911 | 0.923 | 0.9633

COCCO + CCOC(=O)OCC
298.15 K, 101.33 kPa
Conditions | viscosity [mPa·s]
x1 = 0.0272 | 0.752
x1 = 0.0413 | 0.754
x1 = 0.0549 | 0.755
x1 = 0.0747 | 0.755
x1 = 0.0907 | 0.759
x1 = 0.1297 | 0.765
x1 = 0.1593 | 0.772
x1 = 0.224 | 0.791
x1 = 0.2925 | 0.814
x1 = 0.3392 | 0.835
x1 = 0.4073 | 0.866
x1 = 0.4273 | 0.877
x1 = 0.456 | 0.892
x1 = 0.4715 | 0.902
x1 = 0.5283 | 0.939
x1 = 0.5966 | 0.99
x1 = 0.6278 | 1.015
x1 = 0.6808 | 1.062
x1 = 0.7227 | 1.106
x1 = 0.7552 | 1.142
x1 = 0.8011 | 1.197
x1 = 0.8428 | 1.253
x1 = 0.8647 | 1.285
x1 = 0.8826 | 1.313
x1 = 0.9127 | 1.359
x1 = 0.9464 | 1.418
x1 = 0.9674 | 1.455
x2 = 0.0047 | 1.512
x2 = 0.0149 | 1.491

C1CCNCC1 + CCOC(C)=O
303.15 K, 101 kPa
Conditions | viscosity [mPa·s]
x1 = 0.1 | 0.45
x1 = 0.2 | 0.49
x1 = 0.3 | 0.53
x1 = 0.4 | 0.565
x1 = 0.5 | 0.625
x1 = 0.6 | 0.71
x1 = 0.7 | 0.795
x1 = 0.8 | 0.895
x1 = 0.9 | 1.04

CCOC(=O)C(=O)OCC + CCOC(C)=O
viscosity [mPa·s], 101 kPa
Conditions | x1 = 0.0949 | x1 = 0.196 | x1 = 0.3019 | x1 = 0.4065 | x1 = 0.5006 | x1 = 0.6036 | x1 = 0.6954 | x1 = 0.7993 | x1 = 0.8948
303.15 K | 0.458 | 0.535 | 0.636 | 0.736 | 0.844 | 0.978 | 1.107 | 1.265 | 1.428
313.15 K | 0.423 | 0.486 | 0.56 | 0.647 | 0.734 | 0.847 | 0.95 | 1.081 | 1.203
323.15 K | 0.381 | 0.436 | 0.499 | 0.571 | 0.646 | 0.74 | 0.825 | 0.928 | 1.028

COCCO + CCOC(C)=O
viscosity [mPa·s], 101 kPa
Conditions | x1 = 0.0974 | x1 = 0.1945 | x1 = 0.2964 | x1 = 0.3997 | x1 = 0.4973 | x1 = 0.5922 | x1 = 0.6956 | x1 = 0.8008 | x1 = 0.9012
298.15 K | 0.47 | 0.514 | 0.572 | 0.644 | 0.736 | 0.838 | 0.992 | 1.19 | 1.421
303.15 K | 0.444 | 0.484 | 0.536 | 0.601 | 0.683 | 0.775 | 0.912 | 1.086 | 1.286
308.15 K | 0.42 | 0.456 | 0.514 | 0.564 | 0.636 | 0.719 | 0.84 | 0.994 | 1.173

CCCC[N+](C)(CCCC)CCCC.N#C[N-]C#N + CC[n+]1ccn(C)c1.N#C[N-]C#N
Conditions | viscosity [mPa·s]
323.15 K, 101 kPa, x2 = 0.2114 | 42.05

CC(=O)OC(C)C + CCc1ccccc1
viscosity [mPa·s], 101 kPa
Conditions | x1 = 0.1056 | x1 = 0.2037 | x1 = 0.3116 | x1 = 0.4048 | x1 = 0.5112 | x1 = 0.6089 | x1 = 0.7156 | x1 = 0.811 | x1 = 0.9403
303.15 K | 0.582 | 0.567 | 0.551 | 0.538 | 0.523 | 0.51 | 0.496 | 0.484 | 0.467
313.15 K | 0.523 | 0.509 | 0.494 | 0.482 | 0.469 | 0.457 | 0.445 | 0.434 | 0.42

CC(=O)OCC(C)C + CCc1ccccc1
viscosity [mPa·s], 101 kPa
Conditions | x1 = 0.0948 | x1 = 0.1767 | x1 = 0.2601 | x1 = 0.3586 | x1 = 0.4735 | x1 = 0.5727 | x1 = 0.7004 | x1 = 0.7989 | x1 = 0.8805 | x1 = 0.9463
303.15 K | 0.596 | 0.597 | 0.599 | 0.602 | 0.606 | 0.61 | 0.616 | 0.623 | 0.63 | 0.635
313.15 K | 0.527 | 0.528 | 0.529 | 0.53 | 0.534 | 0.539 | 0.545 | 0.552 | 0.559 | 0.569

[Cl-].[Li+] + CN1CCCC1=O
298.15 K, 101 kPa
Conditions | viscosity [mPa·s]
x1 = 0.03756 | 2.607
x1 = 0.03819 | 2.63
x1 = 0.04156 | 2.626
x1 = 0.07132 | 3.558
x1 = 0.07175 | 3.558
x1 = 0.07229 | 3.56
x1 = 0.1038 | 4.959
x1 = 0.1042 | 4.958
x1 = 0.1044 | 4.958
